# According to a melting point compilation (Tetko et al.; mined from patent text by program, amines drawn as free bases though some values may be those of a salt):
row,melting point [°C],SMILES
1,232 to 234,Nc1nc2c(sc(=O)n2C2OC(CO)C(O)C2F)c(=O)[nH]1 (configuration not stated)
2,> 300,Clc1cc(Nc2ccccc2)c2nc[nH]c2n1
3,97,CCOC(=O)CC(=O)NS(=O)(=O)c1ccc([N+](=O)[O-])cc1
4,179 to 180,CCCCC1Cc2c(c3cccnc3n(-c3ccccc3)c2=O)O1 (configuration not stated)
5,99 to 100,CN(Cc1ccccc1)C(=O)CCc1nc(-c2ccc(Cl)cc2)co1
6,58 to 60,CCCCNC(=O)[C@@H]1Cc2ccccc2CN1
7,149 to 150,Cc1ccc2c3c(ccc2n1)OC[C@H](CN1CCC(Oc2ccc4c(c2)NC(=O)CO4)CC1)O3
8,102 to 105,Cn1cncc1COCC(O)c1ccccc1 (configuration not stated)
9,154 to 156,O=C(O)c1ccc(Cl)nc1C(F)(F)F
10,355 to 358,CC(C(=O)O)c1ccc(Nc2nc3ccccc3[nH]2)cc1 (configuration not stated)
11,70.5 to 72,CON=C(c1ccccc1OCc1ccc(C)cc1)n1ccnc1
12,125 to 127,COc1ccc(S(=O)(=O)Cl)cc1N1CCN(C(=O)C(F)(F)F)CC1
13,164 to 165,CCn1c2ccccc2c2cc(C=C(C#N)c3cc(C(F)(F)F)cc(C(F)(F)F)c3)ccc21
14,132 to 134,O=C1CCCc2oc(-c3ccccc3)cc21
15,224 to 225,CCCCc1nc2ccc(C(=O)OC)cc2n1Cc1ccc(-c2ccccc2-c2nnn[nH]2)cc1
16,126 to 128,CCCOc1ccc(S(=O)(=O)N2CCN(CCOC(=O)CC)CC2)cc1-c1nc2c(CCC)cn(CC)c2c(=O)[nH]1
17,279 to 281,CCc1nc2c(N)nc3ccccc3c2n1CC(C)(C)C(N)=O
18,262 to 263,COc1cc(C)c2c(c1C)CC(=O)N2
19,158 to 160,COc1cc(C)nc(NC(=O)NS(=O)(=O)c2ccccc2N=NN(C)C)n1

row,melting point [°C],SMILES
1,58 to 59,OC(CCSc1cccc2ccccc12)CCc1cccnc1 (configuration not stated)
2,150,CCOC(=O)c1c(C)nn(-c2c(Cl)cc(Cl)cc2Cl)c1N
3,72 to 75,COc1ccc(CCc2oc3cccc(O)c3c2C)cc1
4,166 to 167,N#CC1(c2cccc3ccccc23)CCC(=O)CC1
5,134 to 135,COCc1c(C(=O)OC)ncc2[nH]c3ccccc3c12
6,136 to 137,O=C(O)CCc1oc(SC2CCCCC2)nc1-c1ccc(Cl)cc1
7,90,OC(CCN1CCCC1)c1ccc(C2CCCCC2)c(Cl)c1 (configuration not stated)
8,126 to 127,CC(C)(C)OC(=O)Nc1ccc(Cl)nc1
9,217 to 219,NC(=O)c1sc2nc(N3CCC(NCC(O)c4ccc5ncccc5c4)CC3)cc(C(F)(F)F)c2c1N (configuration not stated)
10,150 to 151,CC(C)(C)OC(=O)N1CCN(c2cccc3cc[nH]c23)CC1
11,164 to 166,COc1ncc(CN2C(=O)C3(COc4cc5c(cc43)OCO5)c3ccccc32)s1 (configuration not stated)
12,204 to 205,CC(C)=CC(=O)NCC1Cc2ccc(-c3ccc(=O)[nH]n3)cc2C1 (configuration not stated)
13,225 to 226,c1ccc2c(c1)ncc1nc(C3CCCCCC3)[nH]c12
14,228 to 230,CC(=O)c1ccc(Nc2cccc(-c3cnc(N)nc3)c2)c(N)c1
15,227 to 228,COc1cc(C=CC=C2OC(=O)NC2=O)ccc1OCc1coc(-c2ccccc2)n1
16,> 225,NCC1Cc2cc3c(cc2O1)CCCC3 (configuration not stated)
17,137,Cc1cc(-n2nc(C(F)(F)F)cc2-c2ccc(-c3ccco3)cc2)ccc1S(N)(=O)=O
18,180 to 181,NNC(=O)c1cnc2n(c1=O)CCC2
19,63 to 68,O=C(N1CCC(c2nc(-c3c(Cl)cccc3Cl)no2)CC1)N1CCCc2ccccc21

row,SMILES,melting point [°C]
1,CC1(C)CC(N(CCO)c2c([O-])[c+](N(CCO)C3CC(C)(C)NC(C)(C)C3)[c+]2[O-])CC(C)(C)N1,309 to 311
2,COc1cccc([C@]23CCN(C)C(=O)[C@@H]2CCC2(C3)OCCO2)c1 (relative stereo),180 to 181
3,N#Cc1cc(F)ccc1N1CCNCC1,83 to 83.5
4,COc1c(N=[N+]=[N-])ccnc1C#N,102
